Laboratory results as given in article PMC9030166, “Natural Phaeosphaeride A Derivatives Overcome Drug Resistance of Tumor Cells and Modulate Signaling Pathways” (Pharmaceuticals, 2022).

Key:
Akt (pSer473) = assay: MILLIPLEX MAP 9-Plex, Akt active form in A431 lysates; assay type: cell-based, human; settings: A431 cell lysates, 10 μM, 1 h, M ± mx; control 76.4 ± 16.9
From the text: (§1) We used the MILLIPLEX MAP Multi-Pathway Magnetic Bead 9-Plex-Cell Signaling Multiplex Assay, which allows the simultaneous detection of nine phosphorylated proteins that are markers of the main intracellular signaling pathways (phosphorylation site is indicated in parentheses), a universal transcription factor that controls the expression of immune response genes; apoptosis and cell cycle NFκB (pS536); cAMP-dependent transcription factor (CREB (pS133); mitogen-activated kinase p38 (pT180/pY182); stress-activated protein kinase JNK (pT183/pY185); ribosomal […]; transcription factors STAT3 (pS727) and STAT5A/B (pY694/699); protein kinase B (Akt) (pS473); and kinase regulated by extracellular signals ERK1/2 (pT185/pY187).
(§2) The effect of various concentrations of PPA derivatives on the cell culture was studied using xCelligence RTCA equipment (AceaBioscience, San Diego, CA, USA). The concentration closest to the IC50 (10 μM) was chosen as the experimental concentration. The selected concentration of phaeosphaeride A derivatives allows for the assessment of the early effect of compounds on cells and compares their effectiveness. In this experiment, the signaling pathways Akt (pSer473), p70S6K (pThr412), NFkB (p65-pSer536), and CREB (pSer133) were not activated (Table 8). The stress-activated signaling pathways ERK/MAP kinase 1/2 (pThr185/pTyr187), JNK (pThr183/pTyr185), and p38 (pThr180/pTyr182) were activated for these compounds.
(§3) We used a MILLIPLEX MAP Multi-Pathway Magnetic Bead 9-Plex-Cell Signaling Multiplex Assay kit (Merck/Millipore), according to the manufacturer’s protocol. A431 cells were cultured in DMEM with 10% FBS in 24-well plates. Compounds were added to the subconfluent cells at a concentration of 10 μM in DMEM medium for 1 h. Each compound was added in 5 experimental repeats. Cell lysates were prepared with lysis buffer (Millipore) with protease inhibitors (Complete, Roche); the protein concentration in the lysates was determined by the Lowry method. In samples equalized in protein concentration, the active forms of kinase cascades were determined using a Bio-Plex 200 fluorescent analyzer (Bio-Rad).

STAT3/DNA binding = target: STAT3/DNA binding; set-up: method as in PMID 18668431; settings: read-out: IC50 value, inhibition of STAT3/DNA binding; cited from earlier work
A431 cells = assay: IC50 on A431 cells (xCelligence RTCA cell index); assay type: cell-based; settings: Homo sapiens, A-431
From the text: A431 cells are characterized by a high inducibility of transcription factors STAT3 and STAT5. In turn, phaeosphaeride A and its derivatives are probably inhibitors of the STAT3 gene. Therefore, the A431 cell line was chosen as a model for searching for possible targets for the action of phaeosphaeride A derivatives. Table 7 presents IC50 data for phaeosphaeride A derivatives on A431 cells.
as §2
To determine the integral cellular response using the xCelligence RTCA equipment (AceaBioscience, Santa Clara, CA, USA), 20 thousand cells were inoculated into a well of a specialized plate allowing the determination of the cell index in real time and cultured in complete growth medium. The next day after the seeding, the medium was replaced with an experimental one (compounds at concentrations of […]). The cell index was monitored for 3 days after the addition of the xenobiotic. The concentration closest to the IC50 (10 μM) was chosen as the experimental concentration.

CREB (pSer133) = assay: MILLIPLEX MAP 9-Plex, CREB active form in A431 lysates; assay type: cell-based, human; settings: A431 cell lysates, 10 μM, 1 h, M ± mx; control 154.5 ± 34.2
From the text: as §1, §2, §3

p38 (pThr180/pTyr182) = assay: MILLIPLEX MAP 9-Plex, p38 active form in A431 lysates; assay type: cell-based, human; settings: 10 μM
From the text: as §1, §2, §3

JNK (pThr183/pTyr185) = assay: MILLIPLEX MAP 9-Plex, JNK active form in A431 lysates; assay type: cell-based, human; settings: 10 μM
From the text: as §1, §2, §3

[1] = test system: ERK 1/2 (pThr185/pTyr187); assay: MILLIPLEX MAP 9-Plex, ERK 1/2 active form in A431 lysates; assay type: cell-based, human; settings: 10 μM
From the text: as §1, §2, §3

STAT5 (pTyr694/699) = assay: MILLIPLEX MAP 9-Plex, STAT5 active form in A431 lysates; assay type: cell-based, human; settings: A431 cell lysates, 10 μM, 1 h, M ± mx; control 44.2 ± 10.2
From the text: as §1, §2, §3

p70S6K (pThr389/412) = assay: MILLIPLEX MAP 9-Plex, p70S6K active form in A431 lysates; assay type: cell-based, human; settings: A431 cell lysates, 10 μM, 1 h, M ± mx; control 39.9 ± 7.2
From the text: as §1, §2, §3

STAT3 (pSer727) = assay: MILLIPLEX MAP 9-Plex, STAT3 active form in A431 lysates; assay type: cell-based, human; settings: A431 cell lysates, 10 μM, 1 h, M ± mx; control 70.7 ± 18.3
From the text: as §1, §2, §3

SMILES: C=C1C2=C(C(=O)N1OC)[C@H](O)[C@@](C)(O)[C@H](CCCCC)O2 [PPA, phaeosphaeride A]
- Akt (pSer473) fluorescence intensity (Akt (pSer473)): 123.5 ± 4.9 *↑ rel. units
- IC50 (STAT3/DNA binding): 610 µM
- IC50 (A431 cells): > 50 µM
- CREB (pSer133) fluorescence intensity (CREB (pSer133)): 291.0 ± 32.8 *↑ rel. units
- p38 (pThr180/pTyr182) fluorescence intensity (p38 (pThr180/pTyr182); A431 cell lysates, 1 h, M ± mx, control 567.7 ± 266.6): 1459.1 ± 117.6 *↑ rel. units
- activation of signaling pathway p38 (pThr180/pTyr182), in words (p38 (pThr180/pTyr182); A431 cells): only slightly activated
- JNK (pThr183/pTyr185) fluorescence intensity (JNK (pThr183/pTyr185); A431 cell lysates, 1 h, M ± mx, control 50.9 ± 10.5): 132.8 ± 9.1 *↑ rel. units
- activation of signaling pathway JNK (pThr183/pTyr185), in words (JNK (pThr183/pTyr185); A431 cells): only slightly activated
- ERK ½ (pThr185/pTyr187) fluorescence intensity ([1]; A431 cell lysates, 1 h, M ± mx, control 839.7 ± 248.9): 995.4 ± 46.5 rel. units
- activation of signaling pathway ERK/MAP kinase 1/2 (pThr185/pTyr187), in words ([1]; A431 cells): only slightly activated
- STAT5 (pTyr694/699) fluorescence intensity (STAT5 (pTyr694/699)): 82.5 ± 3.5 *↑ rel. units
- p70S6K (pThr389/412) fluorescence intensity (p70S6K (pThr389/412)): 46.1 ± 2.9 rel. units
- STAT3 (pSer727) fluorescence intensity (STAT3 (pSer727)): 128.8 ± 2.4 *↑ rel. units
